Data reported in ChEMBL document CHEMBL1201862, “PubChem BioAssay data set” (2004).
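Cultured in 96-well plates, cells were exposed to test compound for 48 hours across five concentrations. The concentration for 50% growth inhibition is given as GI50.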 The source made the active and inactive calls. No stated cut-off is given here; in the data, active = GI50 up to about 1.1 µM and inactive = higher.

How the values were obtained:
Assay in all cases: inhibition of tumour cell growth, NCI panel, 48 h
SF-539 = test system: SF-539
TK-10 = test system: TK-10
COLO 205 = test system: COLO 205
UACC-257 = test system: UACC-257
LOX IMVI = test system: LOX IMVI
MDA-N = test system: MDA-N
SNB-19 = test system: SNB-19
RPMI-8226 = test system: RPMI-8226
KM12 = test system: KM12
SK-MEL-2 = test system: SK-MEL-2
CAKI-1 = test system: CAKI-1
HCT-116 = test system: HCT-116
K562 = test system: K562
EKVX = test system: EKVX
NCI-H226 = test system: NCI-H226
786-0 = test system: 786-0
MOLT-4 = test system: MOLT-4
PC-3 = test system: PC-3
M14 = test system: M14
SK-MEL-5 = test system: SK-MEL-5
Malme-3M = test system: Malme-3M
NCI/ADR-RES = test system: NCI/ADR-RES
HCT-15 = test system: HCT-15
OVCAR-5 = test system: OVCAR-5
NCI-H522 = test system: NCI-H522
IGROV-1 = test system: IGROV-1
HOP-92 = test system: HOP-92
U-251 = test system: U-251
UO-31 = test system: UO-31
OVCAR-8 = test system: OVCAR-8
HCC 2998 = test system: HCC 2998
UACC-62 = test system: UACC-62
NCI-H460 = test system: NCI-H460
SW-620 = test system: SW-620
MCF7 = test system: MCF7
OVCAR-4 = test system: OVCAR-4
SN12C = test system: SN12C
BT-549 = test system: BT-549
ACHN = test system: ACHN
CCRF-CEM = test system: CCRF-CEM
MDA-MB-231 = test system: MDA-MB-231
SF-268 = test system: SF-268
SK-MEL-28 = test system: SK-MEL-28
HL-60 = test system: HL-60
A498 = test system: A498
NCI-H23 = test system: NCI-H23
MDA-MB-435 = test system: MDA-MB-435
SR = test system: SR
HT-29 = test system: HT-29
A549 = test system: A549
Hs-578T = test system: Hs-578T
RXF 393 = test system: RXF 393
SF-295 = test system: SF-295
OVCAR-3 = test system: OVCAR-3
SNB-75 = test system: SNB-75
T47D = test system: T47D
DU-145 = test system: DU-145
HOP-62 = test system: HOP-62
SK-OV-3 = test system: SK-OV-3

CC1CCCC(CC(=O)O)(CC(=O)O)C1 (stereo not drawn)
GI50 (SF-539): > 100 µM (inactive) | GI50 (TK-10): > 100 µM (inactive) | GI50 (COLO 205): > 100 µM (inactive) | GI50 (UACC-257): > 100 µM (inactive) | GI50 (LOX IMVI): > 100 µM (inactive) | GI50 (MDA-N): > 100 µM (inactive) | GI50 (SNB-19): > 100 µM (inactive) | GI50 (RPMI-8226): > 100 µM (inactive) | GI50 (KM12): > 100 µM (inactive) | GI50 (SK-MEL-2): > 100 µM (inactive) | GI50 (CAKI-1): > 100 µM (inactive) | GI50 (HCT-116): > 100 µM (inactive) | GI50 (K562): > 100 µM (inactive) | GI50 (EKVX): > 100 µM (inactive) | GI50 (NCI-H226): > 100 µM (inactive) | GI50 (786-0): > 100 µM (inactive) | GI50 (MOLT-4): 48.1 µM (inactive) | GI50 (PC-3): > 100 µM (inactive) | GI50 (M14): > 100 µM (inactive) | GI50 (SK-MEL-5): > 100 µM (inactive) | GI50 (Malme-3M): > 100 µM (inactive) | GI50 (NCI/ADR-RES): > 100 µM (inactive) | GI50 (HCT-15): > 100 µM | GI50 (OVCAR-5): > 100 µM (inactive) | GI50 (NCI-H522): > 100 µM (inactive) | GI50 (IGROV-1): > 100 µM (inactive) | GI50 (HOP-92): > 100 µM (inactive) | GI50 (U-251): > 100 µM (inactive) | GI50 (UO-31): > 100 µM (inactive) | GI50 (OVCAR-8): > 100 µM (inactive) | GI50 (HCC 2998): > 100 µM (inactive) | GI50 (UACC-62): > 100 µM (inactive) | GI50 (NCI-H460): > 100 µM (inactive) | GI50 (SW-620): > 100 µM (inactive) | GI50 (MCF7): > 100 µM (inactive) | GI50 (OVCAR-4): > 100 µM (inactive) | GI50 (SN12C): > 100 µM (inactive) | GI50 (BT-549): > 100 µM (inactive) | GI50 (ACHN): > 100 µM (inactive) | GI50 (CCRF-CEM): > 100 µM (inactive) | GI50 (MDA-MB-231): > 100 µM (inactive) | GI50 (SF-268): > 100 µM (inactive) | GI50 (SK-MEL-28): 7.55 µM (inactive) | GI50 (HL-60): > 100 µM (inactive) | GI50 (A498): > 100 µM (inactive) | GI50 (NCI-H23): > 100 µM (inactive) | GI50 (MDA-MB-435): > 100 µM (inactive) | GI50 (SR): > 100 µM (inactive) | GI50 (HT-29): > 100 µM (inactive) | GI50 (A549): > 100 µM (inactive) | GI50 (Hs-578T): > 100 µM (inactive)

Cc1[nH]c2c(c1C)S(=O)(=O)c1cc3ccccc3nc1N2
GI50 (SF-539): 6.81 µM (inactive) | GI50 (TK-10): 37.7 µM (inactive) | GI50 (COLO 205): 20 µM (inactive) | GI50 (UACC-257): 35.9 µM (inactive) | GI50 (LOX IMVI): 10.6 µM (inactive) | GI50 (MDA-N): 15.7 µM (inactive) | GI50 (SNB-19): 26.2 µM (inactive) | GI50 (RPMI-8226): 14.7 µM (inactive) | GI50 (KM12): 27.9 µM (inactive) | GI50 (SK-MEL-2): 55.3 µM (inactive) | GI50 (CAKI-1): 30.5 µM (inactive) | GI50 (HCT-116): 15.8 µM (inactive) | GI50 (K562): 10.9 µM (inactive) | GI50 (EKVX): 36.7 µM (inactive) | GI50 (NCI-H226): 22 µM (inactive) | GI50 (786-0): 16.6 µM (inactive) | GI50 (MOLT-4): > 100 µM (inactive) | GI50 (PC-3): 34.3 µM (inactive) | GI50 (M14): 20 µM (inactive) | GI50 (SK-MEL-5): 14.6 µM (inactive) | GI50 (RXF 393): 19.3 µM (inactive) | GI50 (Malme-3M): 16.6 µM (inactive) | GI50 (NCI/ADR-RES): 32.3 µM (inactive) | GI50 (HCT-15): 22.1 µM | GI50 (OVCAR-5): 19.7 µM (inactive) | GI50 (NCI-H522): 21.4 µM (inactive) | GI50 (IGROV-1): 10.1 µM (inactive) | GI50 (HOP-92): 25.4 µM (inactive) | GI50 (U-251): 11.2 µM (inactive) | GI50 (UO-31): 21.6 µM (inactive) | GI50 (OVCAR-8): 12.3 µM (inactive) | GI50 (SF-295): 27.3 µM (inactive) | GI50 (HCC 2998): 65.2 µM (inactive) | GI50 (UACC-62): 42.7 µM (inactive) | GI50 (NCI-H460): 18.7 µM (inactive) | GI50 (SW-620): 40.4 µM (inactive) | GI50 (OVCAR-3): 19.9 µM (inactive) | GI50 (MCF7): 5.15 µM (inactive) | GI50 (SNB-75): 17.3 µM (inactive) | GI50 (OVCAR-4): 14.3 µM (inactive) | GI50 (T47D): > 100 µM (inactive) | GI50 (SN12C): 16.4 µM (inactive) | GI50 (BT-549): 69.8 µM (inactive) | GI50 (ACHN): 29.5 µM (inactive) | GI50 (CCRF-CEM): 5.09 µM (inactive) | GI50 (MDA-MB-231): 27.8 µM (inactive) | GI50 (SF-268): 28.1 µM (inactive) | GI50 (SK-MEL-28): 25.5 µM (inactive) | GI50 (DU-145): 24.9 µM (inactive) | GI50 (HOP-62): 18.2 µM (inactive) | GI50 (A498): 73.8 µM (inactive) | GI50 (NCI-H23): 23.9 µM (inactive) | GI50 (SK-OV-3): 30.8 µM (inactive) | GI50 (MDA-MB-435): 26.4 µM (inactive) | GI50 (SR): 17.1 µM (inactive) | GI50 (HT-29): 15 µM (inactive) | GI50 (A549): 36.3 µM (inactive)
